Assay results taken from US20030068286A1, “Self-tanning compositions having improved coloration using 3,5-dimethoxy-4-hydroxybenzaldehyde and 1,3-dihydroxyacetone” (priority 2001, published 2003).

Experiments:
Water solubility = test: Water solubility
Source text: The 3,5-dimethoxy-4-hydroxybenzaldehyde, as a water-insoluble aldehyde, is chemically compatible with water-soluble DHA. The compounds exist in two separate phases of a cosmetic formulation, the water phase and the oil phase.

skin = test: Skin coloration by the Maillard reaction (self-tanning) after application to the skin; assay type: in vivo; details: for coloration produced in the skin: applied to the skin, melanoidins in the upper layers of skin
Experimental: The secondary compound, 3,5-dimethoxy-4-hydroxybenzaldehyde, is applied to the skin along with DHA.
Over time, the chemical stability of unprotected DHA is reduced, producing undesirable chemical compounds such as methylglyoxal and formic acid. […] The Maillard reaction produced by the DHA take sup to 5 hours to produce melanoidins, or colored compounds, in the upper layers of the skin. By the time an undesirable coloration develops, the wearer is helpless to remove or adjust the coloration, and must wait until their upper layers of skin are shed in order to rid themselves of the off-color.
FIG. 1 illustrates the chemical structure of 3,5-dimethoxy-4-hydroxybenzaldehyde. Structurally, this compound is a vanillin, or a hydroxymethoxybenzaldehyde.

| Structure (SMILES) | water solubility (Water solubility) | coloration produced in the skin (skin) | Maillard reaction rate relative to DHA (skin; compared with DHA, attributed to larger molecular size and longer penetration time into the skin) | coloration produced on the skin by degraded DHA (skin; degraded or "stale" DHA applied to the skin) | time of the Maillard reaction to produce melanoidins in the upper layers of the skin (skin; in vivo) |
| --- | --- | --- | --- | --- | --- |
| COc1cc(C=O)cc(OC)c1O [3,5-dimethoxy-4-hydroxybenzaldehyde] | water-insoluble | olive-green | slightly slower |  |  |
| O=C(CO)CO [DHA, 1,3-dihydroxyacetone] |  | orange-brown |  | orange coloration | up to 5 hours |
| CCOc1cc(C=O)ccc1O [ethylvanillin] |  | do not produce similar coloration or any Maillard reaction mechanism |  |  |  |
| COc1cccc(C=O)c1O [ortho-vanillin] |  | do not produce similar coloration or any Maillard reaction mechanism |  |  |  |
